7 compounds from patent US4123613A, “Substituted pyrazines as inhibitors of platelet aggregation” (Societa Farmaceutici Italia S.p.A., priority 1976, dated 1978) can be followed below.

The experiment relates to platelet aggregation (rabbit platelets, ADP-induced). Kind of experiment: ADP-induced platelet aggregation in vitro (turbidimetric method, rabbit platelet-rich plasma). In kind it is cell-based. The note with it: for Percent inhibition of platelets aggregation / inhibition at 25 µg/mL / inhibition at 50 µg/mL / inhibition at 100 µg/mL / inhibition at 200 µg/mL: tartrate salt; for inhibition at 25 µg/mL / inhibition at 50 µg/mL / inhibition at 100 µg/mL / inhibition at 200 µg/mL: Platelet, read-out: Percent inhibition of platelets aggregation. How it is done:
In the biological tests hereafter described, the products were assayed as the tartrate salts.
Male rabbits weighing 2.5-3.5 Kg were used. Fifty four ml of blood were withdrawn from the carotid artery of rabbits anaesthetized with ether.
The PRP was obtained by centrifugation at 400 g for 10 minutes. The concentration of the platelets was adjusted to 250,000/mm^3 by diluting the PRP with PPP prepared by a second centrifugation of the blood samples for about 10 minutes at 2000 g.
The aggregation experiments were generally performed within 1-2 h from the time of blood collection.
In the cuvette of the aggregometer, reagents were added as follows: 0.8 ml drug solution or saline, and 0.2 ml ADP, at the molar concentration of 2.2 × 10^-4. The turbidimetry was checked after 11/2, 3 and 6 minutes. The inhibition of the aggregation is given in the table below as percent of ADP controls at the three times.

[1] abbreviates: 25 γ/ml, 90 seconds after ADP (2.2 × 10^-4).
Where [2] appears, read: 25 γ/ml, 180 seconds after ADP (2.2 × 10^-4).
Where [3] appears, read: 25 γ/ml, 360 seconds after ADP (2.2 × 10^-4).
Where [4] appears, read: 50 γ/ml, 90 seconds after ADP (2.2 × 10^-4).
Where [5] appears, read: 50 γ/ml, 180 seconds after ADP (2.2 × 10^-4).
[6] abbreviates: 50 γ/ml, 360 seconds after ADP (2.2 × 10^-4).
The mark [7] stands for this setting: 100 γ/ml, 90 seconds after ADP (2.2 × 10^-4).
Setting [8] is: 100 γ/ml, 180 seconds after ADP (2.2 × 10^-4).
Setting [9] is: 100 γ/ml, 360 seconds after ADP (2.2 × 10^-4).
Where [10] appears, read: 200 γ/ml, 90 seconds after ADP (2.2 × 10^-4).
Setting [11] is: 200 γ/ml, 180 seconds after ADP (2.2 × 10^-4).
Setting [12] is: 200 γ/ml, 360 seconds after ADP (2.2 × 10^-4).
[13] abbreviates: inhibition of platelet aggregation, at all three times.

Converted amounts (≈) assume the structure as drawn. Where two headings read alike, the source gives them in different places.

For the compound `CO[C@]12C[C@@H](CSc3nccnc3Cl)CN(C)[C@@H]1Cc1cn(C)c3cccc2c13` [355/915, 2-(10'-methoxy-1',6'-dimethylergoline-8'β-methyl)thio-3-chloropyrazine], the “Percent inhibition of platelets aggregation” value (from here on “Percent inhibition”) under setting [1] was 10%; the “Percent inhibition” value under setting [2] is 10%; the “Percent inhibition” value under setting [3] is 10%; the “Percent inhibition” value under setting [4] amounted to 20%; the “Percent inhibition” value under setting [5] is on record as 15%; the “Percent inhibition” value under setting [6] is reported as 25%. The “Percent inhibition” value by setting is: under setting [7], 75%; under setting [8], 75%; under setting [9], 80%; under setting [10], 100%; under setting [11], 100%; under setting [12], 100%. Also, the “activity (inhibition of platelet aggregation, in words)” value (at all three times) was “very strong activity”. This compound yielded an ED50 under setting [13] of 55 to 70 µg/mL.

On to `COc1nccnc1NC[C@H]1CN(C)[C@@H]2Cc3cn(C)c4cccc(c34)[C@@]2(OC)C1` [355/899, 2-(10'-methoxy-1',6'-dimethylergoline-8'β-methyl)amino-3-methoxypyrazine], for which the “Percent inhibition” value runs as follows: under setting [4], 10%; under setting [5], 9%; under setting [6], 10%; under setting [7], 30%; under setting [8], 30%; under setting [9], 30%. Moreover, the “Percent inhibition” value is reported as 60% under setting [10], 61% under setting [11] and 61% under setting [12].

For `CO[C@]12C[C@@H](CNc3cncc(Cl)n3)CN(C)[C@@H]1Cc1cn(C)c3cccc2c13` [355/900, 2-(10'-methoxy-1',6'-dimethylergoline-8'β-methyl)amino-6-chloropyrazine], the “Percent inhibition” value runs as follows: under setting [1], 10%; under setting [2], 10%; under setting [3], 10%; under setting [4], 40%; under setting [5], 25%; under setting [6], 30%. The “Percent inhibition” value runs as follows: under setting [7], 80%; under setting [8], 70%; under setting [9], 80%; under setting [10], 100%; under setting [11], 100%; under setting [12], 100%. Also, under “at all three times”, the “activity (inhibition of platelet aggregation, in words)” value is recorded as “very strong activity”. The compound further returned an ED50 under setting [13] of 55 to 70 µg/mL.

With `COc1nccnc1SCC1CN(C)C2Cc3cn(C)c4cccc(c34)C2(OC)C1` (stereo not drawn) [355/918, 2-(10'-methoxy-1',6'-dimethylergoline-8'β-methyl)thio-3-methoxypyrazine], the inhibition at 25 µg/mL reads like this: (Oryctolagus cuniculus, 25 γ/ml, 90 seconds after ADP (2.2 × 10^-4)) 25%; (Oryctolagus cuniculus, 25 γ/ml, 180 seconds after ADP (2.2 × 10^-4)) 20%; (Oryctolagus cuniculus, 25 γ/ml, 360 seconds after ADP (2.2 × 10^-4)) 26%. Also, the inhibition at 50 µg/mL was 45% (Oryctolagus cuniculus, 50 γ/ml, 90 seconds after ADP (2.2 × 10^-4)); 31% (Oryctolagus cuniculus, 50 γ/ml, 180 seconds after ADP (2.2 × 10^-4)); 42% (Oryctolagus cuniculus, 50 γ/ml, 360 seconds after ADP (2.2 × 10^-4)). Also, the inhibition at 100 µg/mL was determined as 80% (Oryctolagus cuniculus, 100 γ/ml, 90 seconds after ADP (2.2 × 10^-4)); 70% (Oryctolagus cuniculus, 100 γ/ml, 180 seconds after ADP (2.2 × 10^-4)); 80% (Oryctolagus cuniculus, 100 γ/ml, 360 seconds after ADP (2.2 × 10^-4)). The inhibition at 200 µg/mL (Oryctolagus cuniculus, 200 γ/ml, 90 seconds after ADP (2.2 × 10^-4)) stood at 100%; the inhibition at 200 µg/mL (Oryctolagus cuniculus, 200 γ/ml, 180 seconds after ADP (2.2 × 10^-4)) came to 100%; the inhibition at 200 µg/mL (Oryctolagus cuniculus, 200 γ/ml, 360 seconds after ADP (2.2 × 10^-4)) was 100%. The IC50 (Oryctolagus cuniculus, inhibition of platelet aggregation, at all three times, read-out: ED50 (the source's name)) was 55 to 70 µg/mL (≈ 130 to 165 µM). For the same compound, the “activity (inhibition of platelet aggregation, in words)” value (at all three times) is given as “very strong activity”.

Take `CO[C@]12C[C@@H](CNc3nccnc3Cl)CN(C)[C@@H]1Cc1cn(C)c3cccc2c13` [355/898, 2-(10'methoxy-1',6'-dimethylergoline-8'β-methyl)amino-3-chloropyrazine]: the “Percent inhibition” value is, setting by setting: under setting [1], 17%; under setting [2], 20%; under setting [3], 30%; under setting [4], 35%; under setting [5], 31%; under setting [6], 45%. The “Percent inhibition” value is, setting by setting: under setting [7], 67%; under setting [8], 71%; under setting [9], 76%; under setting [10], 77%; under setting [11], 82%; under setting [12], 83%.

In the case of `CO[C@]12C[C@@H](CSc3cnccn3)CN(C)[C@@H]1Cc1cn(C)c3cccc2c13` [355/917, 2-(10'-methoxy-1',6'-dimethylergoline-8'β-methyl)thiopyrazine], the “Percent inhibition” value is listed as 10% under setting [9], 15% under setting [10], 12% under setting [11] and 35% under setting [12]. For the same compound, the “activity (inhibition of platelet aggregation, in words)” value (at all three times) is “very low activity”.

Consider `CO[C@]12C[C@@H](CNc3cnccn3)CN(C)[C@@H]1Cc1cn(C)c3cccc2c13` [355/895, 2-(10'-methoxy-1',6'-dimethylergoline-8'β-methyl)aminopyrazine], for which the “Percent inhibition” value is 5% under setting [6]; 10% under setting [7]; 12% under setting [8]; 20% under setting [9]; 50% under setting [10]; 55% under setting [11]. Besides, the “Percent inhibition” value under setting [12] is 62%. Moreover, the “activity (inhibition of platelet aggregation, in words)” value (at all three times) was “very low activity”.
